Laboratory results from patent publication US20240279202A1 (NURIX THERAPEUTICS, INC., priority 2021, published 2024).
Structures can show the parent of a compound that is named as a salt.

Biological target: T1, ITK (Mus musculus, UniProt Q03526)
T1 construct: mice were sacrificed and splenocytes were isolated and used to prepare protein lysates; from tissue; host or cells: mouse splenocytes (spleen) after oral dosing
T1 sequence (Q03526 1-625): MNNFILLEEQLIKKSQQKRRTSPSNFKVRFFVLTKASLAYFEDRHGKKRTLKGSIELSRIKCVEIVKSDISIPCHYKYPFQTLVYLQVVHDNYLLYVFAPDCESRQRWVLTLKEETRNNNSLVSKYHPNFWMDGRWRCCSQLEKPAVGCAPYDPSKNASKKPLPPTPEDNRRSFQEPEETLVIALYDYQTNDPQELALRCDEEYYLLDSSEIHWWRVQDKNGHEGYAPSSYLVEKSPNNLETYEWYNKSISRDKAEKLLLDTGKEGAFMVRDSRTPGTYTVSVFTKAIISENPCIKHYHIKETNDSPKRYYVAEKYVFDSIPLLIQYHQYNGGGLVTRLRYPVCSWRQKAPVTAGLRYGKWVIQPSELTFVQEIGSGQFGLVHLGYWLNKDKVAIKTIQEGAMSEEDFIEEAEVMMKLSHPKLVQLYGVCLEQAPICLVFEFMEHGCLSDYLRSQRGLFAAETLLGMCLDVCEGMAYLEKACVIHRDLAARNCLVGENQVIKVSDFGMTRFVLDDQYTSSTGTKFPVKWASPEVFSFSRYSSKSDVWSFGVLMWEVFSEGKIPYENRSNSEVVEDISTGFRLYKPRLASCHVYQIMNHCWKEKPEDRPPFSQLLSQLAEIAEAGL
Assay: Mouse PD assay for ITK degradation (Western blot, splenocytes after oral administration)
Assay type: in vivo
Conditions: for ITK degradation in vivo at 6 hours (FIG. 3A, FIG. 4A) / ITK degradation in vivo at 24 hours (FIG. 3A, FIG. 4A): mice, oral, splenocytes, Western blot; for ITK (%) 90 mpk PO, 6 h: percent ITK remaining in mouse splenocytes relative to vehicle
Summary of the method: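 Mice dosed orally, some compounds at 90 mg/kg; splenocytes harvested after 6 hours (some 24 hours). ITK measured by Western blot of equal-protein lysates, normalized to actin. Values are % ITK remaining relative to vehicle-control mean.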

Structure (SMILES)	ITK degradation in vivo at 6 hours (FIG. 3A, FIG. 4A)	ITK degradation in vivo at 24 hours (FIG. 3A, FIG. 4A)	ITK (%) 90 mpk PO, 6 h [%]
CN(C(=O)CN1CCC2(CC1)CCN(c1ccc3c(c1)C(=O)N(C1CCC(=O)NC1=O)C3=O)C2)c1ccc2cc(-c3n[nH]c4c3C[C@@H]3C(F)(F)[C@]3(C)C4)[nH]c2c1 (stereo partly drawn) [Compound 72, N-(2-((4aS,5aR)-5,5-difluoro-5a-methyl-1,4,4a,5,5a,6-hexahydrocyclopropa[f]indazol-3-yl)-1H-indol-6-yl)-2-(2-(2-(2,6-dioxopiperidin-3-yl)-1,3-dioxoisoindolin-5-yl)-2,8-diazaspiro[4.5]decan-8-yl)-N-methylacetamide]			116
Cn1c(=O)n(C2CCC(=O)NC2=O)c2ccc(N3CCC(CN4CCC5(CC4)CCN(c4ccc6cc(-c7n[nH]c8c7CCC(C)(C)C8)[nH]c6c4)C5=O)CC3)cc21 (stereo not shown) [Compound 14, 3-(5-(4-((2-(2-(6,6-dimethyl-4,5,6,7-tetrahydro-1H-indazol-3-yl)-1H-indol-6-yl)-1-oxo-2,8-diazaspiro[4.5]decan-8-yl)methyl)piperidin-1-yl)-3-methyl-2-oxo-2,3-dihydro-1H-benzo[d]imidazol-1-yl)piperidine-2,6-dione]	degraded ITK in vivo		47
C[C@@H](C(=O)N(C)c1ccc2cc(-c3n[nH]c4c3CCC(C)(C)C4)[nH]c2c1)N1CCN(C[C@H]2CCN(c3ccc4c(c3)CN(C3CCC(=O)NC3=O)C4=O)C2)CC1 (stereo partly drawn) [Compound 12, (2S)—N-(2-(6,6-dimethyl-4,5,6,7-tetrahydro-1H-indazol-3-yl)-1H-indol-6-yl)-2-(4-(((3R)-1-(2-(2,6-dioxopiperidin-3-yl)-1-oxoisoindolin-5-yl)pyrrolidin-3-yl)methyl)piperazin-1-yl)-N-methylpropanamide]	degraded ITK in vivo		82
C[C@@]12Cc3[nH]nc(C(=O)Nc4cnn(CC5CN(C(=O)C6CN(C7CCN(c8ccc9c(c8)C(=O)N(C8CCC(=O)NC8=O)C9=O)CC7)C6)C5)c4)c3C[C@@H]1C2(F)F (stereo partly drawn) [Compound 42, (4aS,5aR)-N-(1-((1-(1-(1-(2-(2,6-dioxopiperidin-3-yl)-1,3-dioxoisoindolin-5-yl)piperidin-4-yl)azetidine-3-carbonyl)azetidin-3-yl)methyl)-1H-pyrazol-4-yl)-5,5-difluoro-5a-methyl-1,4,4a,5,5a,6-hexahydrocyclopropa[f]indazole-3-carboxamide]			82
C[C@@]12Cc3[nH]nc(-c4cc5ccc(N6CCC7(CCN(Cc8ccc9c(c8)C(=O)N(C8CCC(=O)NC8=O)C9=O)CC7)C6=O)cc5[nH]4)c3C[C@@H]1C2(F)F (stereo partly drawn) [Compound 15, 5-((2-(2-((4aS,5aR)-5,5-difluoro-5a-methyl-1,4,4a,5,5a,6-hexahydrocyclopropa[f]indazol-3-yl)-1H-indol-6-yl)-1-oxo-2,8-diazaspiro[4.5]decan-8-yl)methyl)-2-(2,6-dioxopiperidin-3-yl)isoindoline-1,3-dione hydrochloride]			18.3
C[C@@H](C(=O)N(C)c1ccc2cc(-c3n[nH]c4c3CCC(C)(C)C4)[nH]c2c1)N1CCN(CC2CCN(c3ccc4c(c3)n(C)c(=O)n4C3CCC(=O)NC3=O)CC2)CC1 (stereo partly drawn) [Compound 6, (2S)—N-(2-(6,6-dimethyl-4,5,6,7-tetrahydro-1H-indazol-3-yl)-1H-indol-6-yl)-2-(4-((1-(1-(2,6-dioxopiperidin-3-yl)-3-methyl-2-oxo-2,3-dihydro-1H-benzo[d]imidazol-5-yl)piperidin-4-yl)methyl)piperazin-1-yl)-N-methylpropanamide]			105
Cn1c(=O)n(C2CCC(=O)NC2=O)c2cccc(N3CCC(CN4CCC5(CC4)CCN(c4ccc6cc(-c7n[nH]c8c7CCC(C)(C)C8)[nH]c6c4)C5=O)CC3)c21 (stereo not shown) [Compound 13, 3-(4-(4-((2-(2-(6,6-dimethyl-4,5,6,7-tetrahydro-1H-indazol-3-yl)-1H-indol-6-yl)-1-oxo-2,8-diazaspiro[4.5]decan-8-yl)methyl)piperidin-1-yl)-3-methyl-2-oxo-2,3-dihydro-1H-benzo[d]imidazol-1-yl)piperidine-2,6-dione]	degraded ITK in vivo		15

Second part, the compound after the results:

ITK degradation in vivo at 6 hours (FIG. 3A, FIG. 4A)	ITK degradation in vivo at 24 hours (FIG. 3A, FIG. 4A)	ITK (%) 90 mpk PO, 6 h [%]	Structure (SMILES)
degraded ITK in vivo	degraded ITK	20	C[C@@H](C(=O)N(C)c1ccc2cc(-c3n[nH]c4c3C[C@@H]3C(F)(F)[C@]3(C)C4)[nH]c2c1)N1CCN(CC2CCN(c3ccc(C4CCC(=O)NC4=O)cn3)CC2)CC1 (stereo partly drawn) [Compound 17, (2S)—N-(2-((4aS,5aR)-5,5-difluoro-5a-methyl-1,4,4a,5,5a,6-hexahydrocyclopropa[f]indazol-3-yl)-1H-indol-6-yl)-2-(4-((1-(5-(2,6-dioxopiperidin-3-yl)pyridin-2-yl)piperidin-4-yl)methyl)piperazin-1-yl)-N-methylpropanamide]
		11	CC1(C)CCc2c(-c3cc4ccc(C(=O)N5CCN(CC6CCN(c7ccc(C8CCC(=O)NC8=O)cn7)CC6)CC5)cc4[nH]3)n[nH]c2C1 (stereo not shown) [Compound 47, 3-(6-(4-((4-(2-(6,6-dimethyl-4,5,6,7-tetrahydro-1H-indazol-3-yl)-1H-indole-6-carbonyl)piperazin-1-yl)methyl)piperidin-1-yl)pyridin-3-yl)piperidine-2,6-dione]
degraded ITK in vivo	degraded ITK	14	C[C@@H](C(=O)N(C)c1ccc2cc(-c3n[nH]c4c3C[C@@H]3C(F)(F)[C@]3(C)C4)[nH]c2c1)N1CCN(CC2CCN(c3ccc(N4CCC(=O)NC4=O)cn3)CC2)CC1 [Compound 18, (S)—N-(2-((4aS,5aR)-5,5-difluoro-5a-methyl-1,4,4a,5,5a,6-hexahydrocyclopropa[f]indazol-3-yl)-1H-indol-6-yl)-2-(4-((1-(5-(2,4-dioxotetrahydropyrimidin-1(2H)-yl)pyridin-2-yl)piperidin-4-yl)methyl)piperazin-1-yl)-N-methylpropanamide]
degraded ITK in vivo		116	C[C@@H](C(=O)N(C)c1ccc2cc(-c3n[nH]c4c3CCC(C)(C)C4)[nH]c2c1)N1CCN(CC2CCN(c3ccc(N4CCC(=O)NC4=O)cn3)CC2)CC1 [Compound 11, (S)—N-(2-(6,6-dimethyl-4,5,6,7-tetrahydro-1H-indazol-3-yl)-1H-indol-6-yl)-2-(4-((1-(5-(2,4-dioxotetrahydropyrimidin-1(2H)-yl)pyridin-2-yl)piperidin-4-yl)methyl)piperazin-1-yl)-N-methylpropanamide]
